Data on 3 molecules can be found in patent publication US6740760B2, “D-proline derivatives” (Hoffmann-La Roche Inc., priority 1997, dated 2004).

Structures are written as SMILES.

In one series the test system is B. fragilis. The conditions noted are these: disclosed in WO 97/10225; cited from earlier work.

`C[C@H](CS)C(=O)N1CCC[C@@H]1C(=O)O` [1-[(S)3-Mercapto-2-methyl-propionyl]-(R)-pyrrolidine-2-carboxylic acid]: the “antibacterial activity against B. fragilis” value in the series on B. fragilis is recorded as “antibacterial activity”.
`O=C(O)[C@H]1CCCN1C(=O)Cc1ccc(CC(=O)N2CCC[C@@H]2C(=O)O)cc1`: the melting point was 210 to 214 °C.
`C[C@@H](CS)C(=O)N1CCC[C@@H]1C(=O)O` [1-[(R)3-Mercapto-2-methyl-propionyl]-(R)-pyrrolidine-2-carboxylic acid]: in the series with B. fragilis, the “antibacterial activity against B. fragilis” value was “antibacterial activity”.
